{"source": "paper PMC4901392", "about": "(Cell host & microbe, 2016)", "key": {"ZigA": {"tested_on": "ZigA", "conditions": "read-out: apparent Km; Zn-bound ZigA (2 µM), 2 mM MgCl2, 150 mM NaCl, 20 mM Tris-HCl pH 8.0"}, "[1]": {"molecular_target": "ZigA (Zur-induced GTPase A) (A. baumannii)", "assay": "SEC"}}, "data": [{"compound": "Nc1nc2c(ncn2[C@@H]2O[C@H](COP(=O)(O)OP(=O)(O)OP(=O)(O)O)[C@@H](O)[C@H]2O)c(=O)[nH]1", "note": "[GTP]", "values": [{"measurement": "Km", "setting": "ZigA", "value": 150, "unit": "µM"}]}, {"compound": "ZigA (Zur-induced GTPase A) (enzyme)", "values": [{"measurement": "stoichiometry N", "setting": "[1]", "value": 2}]}]}
